This passage reports EC50 results from US9598391B2, “Substituted chroman compounds as calcium sensing receptor modulators” (LUPIN LIMITED, priority 2012, dated 2017).

Structures can show the parent of a compound that is named as a salt.

The assay concerns the target T1, Calcium Sensing Receptor (CaSR) (Homo sapiens, UniProt P41180).
T1 construct: expressed in transfected cells
T1 sequence (P41180 20-1078): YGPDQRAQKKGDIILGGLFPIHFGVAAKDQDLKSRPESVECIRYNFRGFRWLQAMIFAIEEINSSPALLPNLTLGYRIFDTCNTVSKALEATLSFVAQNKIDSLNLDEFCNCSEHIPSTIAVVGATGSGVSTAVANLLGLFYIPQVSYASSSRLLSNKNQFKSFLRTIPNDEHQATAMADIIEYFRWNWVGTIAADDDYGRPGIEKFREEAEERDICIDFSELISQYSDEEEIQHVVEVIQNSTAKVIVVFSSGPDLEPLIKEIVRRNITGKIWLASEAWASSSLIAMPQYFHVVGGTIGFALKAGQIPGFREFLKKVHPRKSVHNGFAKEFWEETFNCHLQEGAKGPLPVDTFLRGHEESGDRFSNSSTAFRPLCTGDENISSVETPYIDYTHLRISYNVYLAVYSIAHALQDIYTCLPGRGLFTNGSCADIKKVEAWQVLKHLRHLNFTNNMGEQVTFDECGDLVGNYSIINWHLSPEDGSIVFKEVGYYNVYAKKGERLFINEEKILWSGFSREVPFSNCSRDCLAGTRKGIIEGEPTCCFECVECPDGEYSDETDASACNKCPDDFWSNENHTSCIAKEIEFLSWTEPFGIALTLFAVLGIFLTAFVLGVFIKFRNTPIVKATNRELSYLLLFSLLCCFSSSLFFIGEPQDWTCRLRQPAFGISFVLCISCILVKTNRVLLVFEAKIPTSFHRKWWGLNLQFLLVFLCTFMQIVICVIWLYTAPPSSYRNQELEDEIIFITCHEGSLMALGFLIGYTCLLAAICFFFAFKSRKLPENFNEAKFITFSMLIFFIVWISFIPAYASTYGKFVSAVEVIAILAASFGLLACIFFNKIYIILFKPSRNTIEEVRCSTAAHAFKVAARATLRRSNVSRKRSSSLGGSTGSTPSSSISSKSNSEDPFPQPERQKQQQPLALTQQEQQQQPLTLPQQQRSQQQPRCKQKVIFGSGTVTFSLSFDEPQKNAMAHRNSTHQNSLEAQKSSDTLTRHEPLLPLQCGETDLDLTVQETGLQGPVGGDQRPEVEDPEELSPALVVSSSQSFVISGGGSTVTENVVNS
Put plainly: In-vitro assay of calcimimetics through modulation of Calcium Sensing Receptor (intracellular calcium, FLIPR). In kind it is cell-based. The following applies: HEK293 cells stably expressing hCaSR, increase in intracellular calcium, Fluo4NW dye, 0.3 mM CaCl2, 8-point assay, read-out: EC50 Range. On the procedure:
In-vitro assay method of Calcimimetics through modulation of Calcium Sensing Receptor (CaSR):
The ability of the compounds to modulate Calcium sensing receptor is determined by measuring an increase in intracellular calcium [Ca^2+]i. Stably transfected HEK293 cells expressing hCaSR_pTriEx-3 hygro vector are developed. Cells are grown overnight on a 96-well plate to 80% confluency in Ham's F12 containing 20% FBS at 37° C., 5% CO2. Subsequently, cells are washed extensively with 20 mM HEPES buffer containing 126 mM […], 1 mM MgCl2 and 4 mM KCl to remove serum components that might interfere with the assay. Cells are loaded with calcium sensing Fluo4NW dye in HEPES base buffer containing 0.1% BSA and 1 mg/ml glucose for 30 minutes to measure changes in intracellular calcium. The activities of the compounds are measured in FLIPR using 0.3 mM CaCl2 in 20 mM HEPES base buffer. The effectiveness of the compound to modulate receptor activity is determined by calculating the EC50 responses for that compound in an 8-point assay and plotted using GraphPad Prism 5.
On the technique in general: Calcium assays in cells follow changes in intracellular calcium, usually with a dye or a luminescent sensor.

Broadly, the EC50 is the midpoint of the concentration-response curve.

For the compound `Cc1ccc([C@@H]2C[C@H](CN[C@H](C)c3cccc4ccccc34)Oc3ccccc32)c(C)c1C(=O)O` [Example 67, 2,6-Dimethyl-3-((2R,4S)-2-((((R)-1-(naphthalen-1-yl)ethyl)amino)methyl)chroman-4-yl)benzoic acid hydrochloride], the EC50 was < 20 nM. `Cc1cc(C(=O)O)cc([C@@H]2C[C@H](CN[C@H](C)c3cccc4ccccc34)Oc3ccccc32)c1` [Example 75, 3-Methyl-5-((2R,4S)-2((((R)-1-(naphthalen-1-yl)ethyl)amino)methyl)chroman-4-yl)benzoic acid hydrochloride]: the EC50 is < 20 nM. For the compound `Cc1c(C(=O)O)ccc(F)c1[C@H]1C[C@H](CN[C@H](C)c2cccc3ccccc23)Oc2ccccc21` [Example 81a, 4-Fluoro-2-methyl-3-((2R,4S)-2-((((R)-1-(naphthalen-1-yl)ethyl)amino)methyl)chroman-4-yl)benzoic acid hydrochloride], the 50% effective concentration (EC50) was in the range of 50 to 200 nM. Regarding `Cc1c(C(=O)O)ccc(F)c1[C@@H]1C[C@H](CN[C@H](C)c2cccc3ccccc23)Oc2ccccc21` [Example 81b, 4-Fluoro-2-methyl-3-((2R,4R)-2-((((R)-1-(naphthalen-1-yl)ethyl)amino)methyl)chroman-4-yl)benzoic acid hydrochloride], the EC50 is < 20 nM. The same measure for `C[C@@H](NC[C@H]1C[C@@H](c2ccc(C(F)(F)F)c(C(=O)O)c2)c2ccccc2O1)c1cccc2ccccc12` [Example 83, 5-((2R,4S)-2-((((R)-1-(Naphthalen-1-yl)ethyl)amino)methyl)chroman-4-yl)-2-(trifluoromethyl)benzoic acid hydrochloride]: < 20 nM; for `Cc1ccc([C@@H]2C[C@H](CN[C@H](C)c3cccc4ccccc34)Oc3ccccc32)cc1C(=O)O` [Example 84b, 2-Methyl-5-((2R,4S)-2-((((R)-1-(naphthalen-1-yl)ethyl)amino)methyl)chroman-4-yl)benzoic acid hydrochloride]: < 20 nM; for `COc1c(C(=O)O)cccc1[C@H]1C[C@H](CN[C@H](C)c2cccc3ccccc23)Oc2ccccc21` [Example 89a, 2-Methoxy-3-((2R,4S)-2-((((R)-1-(naphthalen-1-yl)ethyl)amino)methyl)chroman-4-yl)benzoic acid hydrochloride]: 20 to 50 nM. Regarding `COc1c(C(=O)O)cccc1[C@@H]1C[C@H](CN[C@H](C)c2cccc3ccccc23)Oc2ccccc21` [Example 89b, 2-Methoxy-3-((2R,4R)-2-((((R)-1-(naphthalen-1-yl)ethyl)amino)methyl)chroman-4-yl)benzoic acid hydrochloride], the concentration giving a half-maximal response (EC50) is < 20 nM. As for `Cc1ccc([C@@H]2C[C@H](CN[C@H](C)c3cccc4ccccc34)Oc3ccccc32)cc1OCC(=O)O` [Example 91, 2-(2-Methyl-5-((2R,4S)-2-((((R)-1-(naphthalen-1-yl)ethyl)amino)methyl)chroman-4-yl)phenoxy)acetic acid hydrochloride], the EC50 was < 20 nM. As to `C[C@@H](NC[C@H]1C[C@H](c2ccc(F)c(OCC(=O)O)c2)c2ccccc2O1)c1cccc2ccccc12` [Example 93a, 2-(2-Fluoro-5-((2R,4R)-2-((((R)-1-(naphthalen-1-yl)ethyl)amino)methyl)chroman-4-yl)phenoxy)acetic acid hydrochloride], the concentration for a half-maximal effect (EC50) was < 20 nM.

As to `C[C@@H](NC[C@H]1C[C@@H](c2ccc(F)c(OCC(=O)O)c2)c2ccccc2O1)c1cccc2ccccc12` [Example 93b, 2-(2-Fluoro-5-((2R,4S)-2-((((R)-1-(naphthalen-1-yl)ethyl)amino)methyl)chroman-4-yl)phenoxy)acetic acid hydrochloride], the EC50 is < 20 nM. Consider `C[C@@H](NC[C@H]1C[C@@H](c2cccc(OC(C)(C)C(=O)O)c2)c2ccccc2O1)c1cccc2ccccc12` [Example 97, 2-Methyl-2-(3-((2R,4S)-2-((((R)-1-(naphthalen-1-yl)ethyl)amino)methyl)chroman-4-yl)phenoxy)propanoic acid hydrochloride], for which the EC50 lay in the range of 20 to 50 nM.

As to `C[C@@H](NC[C@H]1C[C@H](c2ccc(C(=O)O)cc2)c2ccccc2O1)c1cccc2ccccc12` [Example 98a, 4-((2R,4R)-2-((((R)-1-(Naphthalen-1-yl)ethyl)amino)methyl)chroman-4-yl)benzoic acid hydrochloride], the EC50 is 50 to 200 nM.

In the case of `C[C@@H](NC[C@H]1C[C@@H](c2ccc(C(=O)O)cc2)c2ccccc2O1)c1cccc2ccccc12` [Example 98b, 4-((2R,4S)-2-((((R)-1-(Naphthalen-1-yl)ethyl)amino)methyl)chroman-4-yl)benzoic acid hydrochloride], the EC50 is 50 to 200 nM.

Turning to `Cc1cc([C@@H]2C[C@H](CN[C@H](C)c3cccc4ccccc34)Oc3ccccc32)ccc1C(=O)O` [Example 99b, 2-Methyl-4-((2R,4S)-2-((((R)-1-(naphthalen-1-yl)ethyl)amino)methyl)chroman-4-yl)benzoic acid hydrochloride], the concentration giving a half-maximal response (EC50) is < 20 nM.

Turning to `C[C@@H](NC[C@H]1C[C@@H](c2cc(F)c(C(=O)O)c(F)c2)c2ccccc2O1)c1cccc2ccccc12` [Example 101, 2,6-Difluoro-4-((2R,4S)-2-((((R)-1-(naphthalen-1-yl)ethyl)amino)methyl)chroman-4-yl)benzoic acid hydrochloride], the EC50 fell in the range of 20 to 50 nM.

Turning to `COc1cc(C(=O)O)ccc1[C@@H]1C[C@H](CN[C@H](C)c2cccc3ccccc23)Oc2ccccc21` [Example 102b, 3-Methoxy-4-((2R,4S)-2-((((R)-1-(naphthalen-1-yl)ethyl)amino)methyl)chroman-4-yl)benzoic acid hydrochloride], the half-maximal effective concentration (EC50) was < 20 nM.

Regarding `C[C@@H](NC[C@H]1C[C@@H](c2ccc(C(=O)O)c(F)c2)c2ccccc2O1)c1cccc2ccccc12` [Example 104, 2-Fluoro-4-((2R,4S)-2-((((R)-1-(naphthalen-1-yl)ethyl)amino)methyl)chroman-4-yl)benzoic acid hydrochloride], the concentration for a half-maximal effect (EC50) is < 20 nM.

Turning to `C[C@@H](NC[C@H]1C[C@@H](c2ccc(OCC(=O)O)cc2)c2ccccc2O1)c1cccc2ccccc12` [Example 105b, 2-(4-((2R,4S)-2-((((R)-1-(Naphthalen-1-yl)ethyl)amino)methyl)chroman-4-yl)phenoxy)acetic acid hydrochloride], the EC50 is < 20 nM. Consider `C[C@@H](NC[C@H]1C[C@@H](c2ccc(CC(=O)O)cc2)c2ccccc2O1)c1cccc2ccccc12` [Example 107b, 2-(4-((2R,4S)-2-((((R)-1-(Naphthalen-1-yl)ethyl)amino)methyl)chroman-4-yl)phenyl)acetic acid hydrochloride], for which the concentration giving a half-maximal response (EC50) is 20 to 50 nM.

Regarding `C[C@@H](NC[C@H]1C[C@H](c2ccc(C(C)(C)C(=O)O)cc2)c2ccccc2O1)c1cccc2ccccc12` [Example 108a, 2-Methyl-2-(4-((2R,4R)-2-((((R)-1-(naphthalen-1-yl)ethyl)amino)methyl)chroman-4-yl)phenyl)propanoic acid hydrochloride], the EC50 lay within 50 to 200 nM. Under `C[C@@H](NC[C@H]1C[C@@H](c2ccc(C(C)(C)C(=O)O)cc2)c2ccccc2O1)c1cccc2ccccc12` [Example 108b, 2-Methyl-2-(4-((2R,4S)-2-((((R)-1-(naphthalen-1-yl)ethyl)amino)methyl)chroman-4-yl)phenyl)propanoic acid hydrochloride] stands 50 to 200 nM; under `COc1cc([C@@H](C)NC[C@H]2C[C@@H](c3ccc(C(=O)O)c(C)c3)c3ccccc3O2)ccc1F` [Example 114, 4-((2R,4S)-2-((((R)-1-(4-Fluoro-3-methoxyphenyl)ethyl)amino)methyl)chroman-4-yl)-2-methylbenzoic acid hydrochloride], 50 to 200 nM.
